Reference: patent US12508216B2, “Process for the preparation of antimalassezia powder” (PRAJ INDUSTRIES LIMITED, priority 2022, dated 2025)
≈ marks a conversion by molar mass, not a printed value. Entries after “also recorded” stand apart in the source; their conditions may differ.

Test system: M. globosa
Assay: MIC and MFC by broth microdilution technique
Assay type: cell-based, Malassezia globosa
Conditions: Malassezia globosa, first figure of MFC/MIC cell, read-out: MFC
Experimental: (§1) The MIC of first extract and individual fractions (1-7) which were collected from RP-HPLC was calculated by ‘broth microdilution technique’ in 96-well microtiter plates. […] As a positive control, commercially used antifungal drug ketoconazole was used in concentrations ranging from 32 μg/mL to 0.0156 μg/mL. The plates were incubated at 30° C. for Malassezia spp and the results were recorded after 48 h and 7 days. The minimum inhibitory concentration (MIC) was measured as the lowest sample concentration that could inhibit the fungal growth.

Q: How did the MFC turn out when `CC(=O)N1CCN(c2ccc(OCC3COC(Cn4ccnc4)(c4ccc(Cl)cc4Cl)O3)cc2)CC1` (stereo not drawn) [Ketoconazole, reference compound] was run?
A: 0.08 mg/L (≈ 0.151 µM)

Same assay, conditions: Malassezia globosa, second figure of MFC/MIC cell, read-out: MIC

Q: With `CC(=O)N1CCN(c2ccc(OCC3COC(Cn4ccnc4)(c4ccc(Cl)cc4Cl)O3)cc2)CC1` (stereo not drawn) [Ketoconazole, reference compound] as the molecule, how does the MIC read?
A: 0.03 mg/L (≈ 0.0565 µM)

Same assay, conditions: first figure of MFC/MIC cell

Q: How did the MFC turn out when `C[C@@H]1CCC/C=C/C=C/[C@H](O)C[C@@H](O)C/C=C\C=C\[C@@H](O)C/C=C/C=C\C(=O)O1` [Fraction 5, Macrolactin A] was run?
A: 275 mg/L (≈ 683 µM)

Q: `CC1CCCC=CC=CC(O)CC(O)CC=CC=CC(OC(=O)CCC(=O)O)CC=CC=CC(=O)O1` (stereo not drawn) [Fraction 6, 7-O-succinylmacrolactin A] was tested. Which MFC did it give?
A: 96 mg/L (≈ 191 µM)

Q: For C14 Bacillomycin D [Fraction 2], which MFC is on record?
A: >228 mg/L

Q: For C15 Bacillomycin D [Fraction 3], which MFC is on record?
A: >228 mg/L

Q: C16 Bacillomycin D [Fraction 4] was tested. Which MFC did it give?
A: >228 mg/L

Same assay, conditions: second figure of MFC/MIC cell

Q: Which MIC does the source give for `C[C@@H]1CCC/C=C/C=C/[C@H](O)C[C@@H](O)C/C=C\C=C\[C@@H](O)C/C=C/C=C\C(=O)O1` [Fraction 5, Macrolactin A] here?
A: 138 mg/L (≈ 343 µM)

Q: Which MIC does the source give for `CC1CCCC=CC=CC(O)CC(O)CC=CC=CC(OC(=O)CCC(=O)O)CC=CC=CC(=O)O1` (stereo not drawn) [Fraction 6, 7-O-succinylmacrolactin A] here?
A: 48 mg/L (≈ 95.5 µM)

Q: How did the MIC turn out when C14 Bacillomycin D [Fraction 2] was run?
A: >228 mg/L

Q: C15 Bacillomycin D [Fraction 3] was tested. Which MIC did it give?
A: >228 mg/L

Q: For C16 Bacillomycin D [Fraction 4], which MIC is on record?
A: >228 mg/L

Test system: Malassezia indicator strains
Assay: Agar plate diffusion assay, antifungal activity in words
Assay type: cell-based
Conditions: against Malassezia, compared among fractions 1-7
Experimental: (§2) said first extract is analyzed for antifungal activity using agar plate diffusion assay and by time kill procedure. […] For time-kill procedure, the inoculum suspension of indicator strains of Malassezia (10^5 CFU/mL) is exposed to different concentration of First extract. Then, 50-μL aliquots is withdrawn at fixed intervals and evaluated. […] Said first extract is used further for down streaming to separate the antifungal peptides.
About 15 ml fraction which was obtained after anion exchange chromatography was lyophilized to get about 1500 mg of dry powder. About 50 mg was mixed with 1 ml sodium phosphate buffer and then said solution was injected to Scalar C18 column. The separation of the antifungal peptides was carried out by binary solvent gradient elution system comprising about 0.1% trifluoroacetic acid in HPLC grade deionized water (eluent A) and about 0.1% trifluoroacetic acid in acetonitrile (eluent B). The gradient program was as follows between: 0 to 20 min, 0-40% B, 20-30 min, 40 to 80% B, 30 to 35 min, 80 to 100% B, 35 to 45 min, 100 to 0% B at a flow rate of about 1.0 mL/min at 30° C., Six separate fractions were collected at retention times of 24.5, 28.2, 30.1, 32.2, 34.5 and 37.1 minutes and seventh fraction was collected from 38 to 43 minutes according to the absorption profile at 220 nm and 280 nm using the fraction collector and further freeze-dried. […]

Q: With `C[C@@H]1CCC/C=C/C=C/[C@H](O)C[C@@H](O)C/C=C\C=C\[C@@H](O)C/C=C/C=C\C(=O)O1` [Fraction 5, Macrolactin A] as the molecule, how does the “antifungal activity of individual fractions in words” value read?
A: strongest anti-fungal activity

Q: How did the “antifungal activity of individual fractions in words” value turn out when `CC1CCCC=CC=CC(O)CC(O)CC=CC=CC(OC(=O)CCC(=O)O)CC=CC=CC(=O)O1` (stereo not drawn) [Fraction 6, 7-O-succinylmacrolactin A] was run?
A: strongest anti-fungal activity; also recorded: strongest antifungal activity

Test system: M. furfur
Assay: MIC and MFC by broth microdilution technique
Assay type: cell-based, Malassezia furfur
Conditions: M. furfur; first figure of MFC/MIC cell
Experimental: as §1

Q: `C[C@@H]1CCC/C=C/C=C/[C@H](O)C[C@@H](O)C/C=C\C=C\[C@@H](O)C/C=C/C=C\C(=O)O1` [Fraction 5, Macrolactin A] was tested. Which MFC did it give?
A: 330 mg/L (≈ 820 µM)

Q: For `CC1CCCC=CC=CC(O)CC(O)CC=CC=CC(OC(=O)CCC(=O)O)CC=CC=CC(=O)O1` (stereo not drawn) [Fraction 6, 7-O-succinylmacrolactin A], which MFC is on record?
A: 96 mg/L (≈ 191 µM)

Q: With `CC(=O)N1CCN(c2ccc(OCC3COC(Cn4ccnc4)(c4ccc(Cl)cc4Cl)O3)cc2)CC1` (stereo not drawn) [Ketoconazole, reference compound] as the molecule, how does the MFC read?
A: 0.1 mg/L (≈ 0.188 µM)

Q: With C14 Bacillomycin D [Fraction 2] as the molecule, how does the MFC read?
A: >228 mg/L

Q: How did the MFC turn out when C15 Bacillomycin D [Fraction 3] was run?
A: >228 mg/L

Q: How did the MFC turn out when C16 Bacillomycin D [Fraction 4] was run?
A: >228 mg/L

Same assay, conditions: M. furfur; second figure of MFC/MIC cell

Q: With `C[C@@H]1CCC/C=C/C=C/[C@H](O)C[C@@H](O)C/C=C\C=C\[C@@H](O)C/C=C/C=C\C(=O)O1` [Fraction 5, Macrolactin A] as the molecule, how does the MIC read?
A: 165 mg/L (≈ 410 µM)

Q: How did the MIC turn out when `CC1CCCC=CC=CC(O)CC(O)CC=CC=CC(OC(=O)CCC(=O)O)CC=CC=CC(=O)O1` (stereo not drawn) [Fraction 6, 7-O-succinylmacrolactin A] was run?
A: 48 mg/L (≈ 95.5 µM)

Q: With `CC(=O)N1CCN(c2ccc(OCC3COC(Cn4ccnc4)(c4ccc(Cl)cc4Cl)O3)cc2)CC1` (stereo not drawn) [Ketoconazole, reference compound] as the molecule, how does the MIC read?
A: 0.03 mg/L (≈ 0.0565 µM)

Q: With C14 Bacillomycin D [Fraction 2] as the molecule, how does the MIC read?
A: >228 mg/L

Q: How did the MIC turn out when C15 Bacillomycin D [Fraction 3] was run?
A: >228 mg/L

Q: Which MIC does the source give for C16 Bacillomycin D [Fraction 4] here?
A: >228 mg/L

Same assay, conditions: Malassezia furfur; first M. furfur column; first figure of MFC/MIC cell; read-out: MFC

Q: How did the MFC turn out when `CC(=O)N1CCN(c2ccc(OCC3COC(Cn4ccnc4)(c4ccc(Cl)cc4Cl)O3)cc2)CC1` (stereo not drawn) [Ketoconazole, reference compound] was run?
A: 0.1 mg/L (≈ 0.188 µM)

Same assay, conditions: Malassezia furfur; first M. furfur column; second figure of MFC/MIC cell; read-out: MIC

Q: For `CC(=O)N1CCN(c2ccc(OCC3COC(Cn4ccnc4)(c4ccc(Cl)cc4Cl)O3)cc2)CC1` (stereo not drawn) [Ketoconazole, reference compound], which MIC is on record?
A: 0.03 mg/L (≈ 0.0565 µM)

Same assay, conditions: first M. furfur column; first figure of MFC/MIC cell

Q: `C[C@@H]1CCC/C=C/C=C/[C@H](O)C[C@@H](O)C/C=C\C=C\[C@@H](O)C/C=C/C=C\C(=O)O1` [Fraction 5, Macrolactin A] was tested. Which MFC did it give?
A: 313 mg/L (≈ 778 µM)

Q: `CC1CCCC=CC=CC(O)CC(O)CC=CC=CC(OC(=O)CCC(=O)O)CC=CC=CC(=O)O1` (stereo not drawn) [Fraction 6, 7-O-succinylmacrolactin A] was tested. Which MFC did it give?
A: 96 mg/L (≈ 191 µM)

Q: C14 Bacillomycin D [Fraction 2] was tested. Which MFC did it give?
A: >228 mg/L

Q: How did the MFC turn out when C15 Bacillomycin D [Fraction 3] was run?
A: >228 mg/L

Q: C16 Bacillomycin D [Fraction 4] was tested. Which MFC did it give?
A: >228 mg/L

Same assay, conditions: first M. furfur column; second figure of MFC/MIC cell

Q: `C[C@@H]1CCC/C=C/C=C/[C@H](O)C[C@@H](O)C/C=C\C=C\[C@@H](O)C/C=C/C=C\C(=O)O1` [Fraction 5, Macrolactin A] was tested. Which MIC did it give?
A: 156 mg/L (≈ 388 µM)

Q: Which MIC does the source give for `CC1CCCC=CC=CC(O)CC(O)CC=CC=CC(OC(=O)CCC(=O)O)CC=CC=CC(=O)O1` (stereo not drawn) [Fraction 6, 7-O-succinylmacrolactin A] here?
A: 48 mg/L (≈ 95.5 µM)

Q: Which MIC does the source give for C14 Bacillomycin D [Fraction 2] here?
A: >228 mg/L

Q: Which MIC does the source give for C15 Bacillomycin D [Fraction 3] here?
A: >228 mg/L

Q: With C16 Bacillomycin D [Fraction 4] as the molecule, how does the MIC read?
A: >228 mg/L

Test system: M. furfur
Assay: Agar plate diffusion assay, zone of inhibition
Assay type: cell-based, Malassezia furfur
Conditions: not given
Experimental: as §2
(§3) About 15 ml fraction which was obtained after anion exchange chromatography was lyophilized to get about 1500 mg of dry powder. About 50 mg was mixed with 1 ml sodium phosphate buffer and then said solution was injected to Scalar C18 column. The separation of the antifungal peptides was carried out by binary solvent gradient elution system comprising about 0.1% trifluoroacetic acid in HPLC grade deionized water (eluent A) and about 0.1% trifluoroacetic acid in acetonitrile (eluent B). The gradient program was as follows between: 0 to 20 min, 0-40% B, 20-30 min, 40 to 80% B, 30 to 35 min, 80 to 100% B, 35 to 45 min, 100 to 0% B at a flow rate of about 1.0 mL/min at 30° C., Six separate fractions were collected at retention times of 24.5, 28.2, 30.1, 32.2, 34.5 and 37.1 minutes and seventh fraction was collected from 38 to 43 minutes according to the absorption profile at 220 nm and 280 nm using the fraction collector and further freeze-dried. Individual fractions were labelled as 1, 2, 3, 4, 5, 6 and 7 in the order if increasing retention times, dissolved in sterile distilled water and then tested for their individual antifungal activity. […] And fraction 5 was not reported against M. furfur, M. globose species. For experiment the 0.1 M sodium phosphate buffer was used as a negative control and Ketoconazol was used as a positive control

Q: For `C[C@@H]1CCC/C=C/C=C/[C@H](O)C[C@@H](O)C/C=C\C=C\[C@@H](O)C/C=C/C=C\C(=O)O1` [Fraction 5, Macrolactin A], which Zone of inhibition is on record?
A: 2 ± 0.77 mm

Q: Which Zone of inhibition does the source give for `CC1CCCC=CC=CC(O)CC(O)CC=CC=CC(OC(=O)CCC(=O)O)CC=CC=CC(=O)O1` (stereo not drawn) [Fraction 6, 7-O-succinylmacrolactin A] here?
A: 6 ± 0.7 mm

Q: With `CC(=O)N1CCN(c2ccc(OCC3COC(Cn4ccnc4)(c4ccc(Cl)cc4Cl)O3)cc2)CC1` (stereo not drawn) [Ketoconazole, reference compound] as the molecule, how does the Zone of inhibition read?
A: 12 ± 0.65 mm

Q: With C14 Bacillomycin D [Fraction 2] as the molecule, how does the Zone of inhibition read?
A: 2 ± 0.45 mm

Q: With C15 Bacillomycin D [Fraction 3] as the molecule, how does the Zone of inhibition read?
A: 3 ± 0.26 mm

Test system: M. globosa
Assay: Agar plate diffusion assay, zone of inhibition
Assay type: cell-based, Malassezia globosa
Conditions: not given
Experimental: as §2, §3

Q: For `C[C@@H]1CCC/C=C/C=C/[C@H](O)C[C@@H](O)C/C=C\C=C\[C@@H](O)C/C=C/C=C\C(=O)O1` [Fraction 5, Macrolactin A], which Zone of inhibition is on record?
A: 2 ± 0.69 mm

Q: Which Zone of inhibition does the source give for `CC1CCCC=CC=CC(O)CC(O)CC=CC=CC(OC(=O)CCC(=O)O)CC=CC=CC(=O)O1` (stereo not drawn) [Fraction 6, 7-O-succinylmacrolactin A] here?
A: 7 ± 0.65 mm

Q: `CC(=O)N1CCN(c2ccc(OCC3COC(Cn4ccnc4)(c4ccc(Cl)cc4Cl)O3)cc2)CC1` (stereo not drawn) [Ketoconazole, reference compound] was tested. Which Zone of inhibition did it give?
A: 11 ± 0.64 mm

Q: Which Zone of inhibition does the source give for C14 Bacillomycin D [Fraction 2] here?
A: 2 ± 0.42 mm

Q: With C15 Bacillomycin D [Fraction 3] as the molecule, how does the Zone of inhibition read?
A: 2 ± 0.25 mm
